Measurements taken from patent US10358442B2, “2-homopiperazine-1-yl-4H-1,3-benzothiazine-4-one derivatives and process for the preparation of 2-(homo)piperazine 1,3-benzothiazine-4-one hydrochlorides” (Ecole Polytechnique Federale De Lausanne (EPFL), priority 2015, dated 2019).
Converted amounts (≈) assume the structure as drawn.

What was measured:
M. tuberculosis H37Rv = test: resazurin reduction assay (MIC99), M. tuberculosis H37Rv; assay type: cell-based; settings: Mycobacterium tuberculosis, BTZ-susceptible wild type strain
Description: Activity against M. tuberculosis strains H37Rv and NBT1 was determined by the resazurin reduction assay (MIC99). The method is described in detail in: J. C. Palomino, A. Martin, M. Camacho, H. Guerra, J. Swings, F. Portaels, Antimicrob. Agents Chemother., 2002, 46, 2720-2722.

Structure (SMILES)	melting point [°C]	MIC99 (M. tuberculosis H37Rv) [ng/mL]
Cl.O=c1nc(N2CCN(CCC3CCCCC3)CC2)sc2c([N+](=O)[O-])cc(C(F)(F)F)cc12 (hydrate or solvate)	271 to 273	
Cl.O=c1nc(N2CCCN(CCC3CCCCC3)CC2)sc2c([N+](=O)[O-])cc(C(F)(F)F)cc12 [Compound 4, 2-[4-(2-Cyclohexylethyl)-1,4-diazepan-1-yl]-8-nitro-6-(trifluoromethyl)-4H-1,3-benzothiazin-4-one Hydrochloride]	274 to 277	0.2
CCCCCCCN1CCN(c2nc(=O)c3cc(C(F)(F)F)cc([N+](=O)[O-])c3s2)CC1.Cl (hydrate or solvate)	254 to 256	
Cl.O=c1nc(N2CCN(CCCCOc3ccccc3)CC2)sc2c([N+](=O)[O-])cc(C(F)(F)F)cc12	256 to 258	
Cl.O=c1nc(N2CCCN(C3CCCCC3)CC2)sc2c([N+](=O)[O-])cc(C(F)(F)F)cc12 (hydrate or solvate) [Compound 6, 2-(4-Cyclohexyl-1,4-diazepan-1-yl)-8-nitro-6-(trifluoromethyl)-4H-1,3-benzothiazin-4-one Hydrochloride]	290 to 293	
CCCCN1CCN(c2nc(=O)c3cc(C(F)(F)F)cc([N+](=O)[O-])c3s2)CC1.Cl (hydrate or solvate)	239 to 241	
Cl.O=c1nc(N2CCCN(CCc3ccccc3)CC2)sc2c([N+](=O)[O-])cc(C(F)(F)F)cc12 [Compound 7, 8-Nitro-2-[4-(2-phenylethyl)-1,4-diazepan-1-yl]-6-(trifluoromethyl)-4H-1,3-benzothiazin-4-one Hydrochloride]		0.8
CCCCCCN1CCCN(c2nc(=O)c3cc(C(F)(F)F)cc([N+](=O)[O-])c3s2)CC1.Cl [Compound 3, 2-(4-Hexyl-1,4-diazepan-1-yl)-8-nitro-6-(trifluoromethyl)-4H-1,3-benzothiazin-4-one Hydrochloride]	249 to 251	0.2
O=c1nc(N2CCN(CC3CCCCC3)CC2)sc2c([N+](=O)[O-])cc(C(F)(F)F)cc12 [PBTZ169, 2-[4-(cyclohexylmethyl)piperazin-1-yl]-8-nitro-6-(trifluoromethyl)-4H-1,3-benzothiazin-4-one, reference compound]		0.3 (≈ 0.657 nM)
CCCCCCCN1CCCN(c2nc(=O)c3cc(C(F)(F)F)cc([N+](=O)[O-])c3s2)CC1.Cl [Compound 5, 2-(4-Heptyl-1,4-diazepan-1-yl)-8-nitro-6-(trifluoromethyl)-4H-1,3-benzothiazin-4-one Hydrochloride]	256 to 258	0.3
Cl.O=c1nc(N2CCCN(C3CCCCC3)CC2)sc2c([N+](=O)[O-])cc(C(F)(F)F)cc12 [Compound 6, 2-(4-Cyclohexyl-1,4-diazepan-1-yl)-8-nitro-6-(trifluoromethyl)-4H-1,3-benzothiazin-4-one Hydrochloride]		1
Cl.O=c1nc(N2CCCN(CC3CCCCC3)CC2)sc2c([N+](=O)[O-])cc(C(F)(F)F)cc12 [Compound 1, 2-[4-(Cyclohexylmethyl)-1,4-diazepan-1-yl]-8-nitro-6-(trifluoromethyl)-4H-1,3-benzothiazin-4-one Hydrochloride]	269 to 271	1
CCCCCN1CCCN(c2nc(=O)c3cc(C(F)(F)F)cc([N+](=O)[O-])c3s2)CC1.Cl [Compound 2, 8-Nitro-2-(4-pentyl-1,4-diazepan-1-yl)-6-(trifluoromethyl)-4H-1,3-benzothiazin-4-one Hydrochloride]	246 to 248	0.2
Cl.O=c1nc(N2CCCN(CCc3ccccc3)CC2)sc2c([N+](=O)[O-])cc(C(F)(F)F)cc12 (hydrate or solvate) [Compound 7, 8-Nitro-2-[4-(2-phenylethyl)-1,4-diazepan-1-yl]-6-(trifluoromethyl)-4H-1,3-benzothiazin-4-one Hydrochloride]	264 to 267	
